This note sets out measurements from US20230145305A1, “COMPOUNDS USEFUL AS KINASE INHIBITORS” (Fochon Biosciences, Ltd., priority 2020, published 2023).

One experiment addresses T1, BTK (C481S) (Homo sapiens, UniProt Q06187, C481S).
T1 construct: purchased SignalChem B10-12CH
The experiment is described as follows: Kinase assay of BTK (C481S), [33P]-ATP filter-binding, Reaction Biology Corporation. The format is biochemical. The settings on record: 6 nM BTK (C481S), 0.2 mg/ml pEY substrate, 10 μM ATP, 20 min preincubation, 120 min reaction at room temperature. Here is the method: The kinase activity of BTK (C481S) was assayed at Reaction Biology Corporation. The substrate in the BTK (C481S) reaction, pEY (poly[Glu:Tyr] (4:1)) (Sigma, Cat. #P7244-250MG), was prepared in fresh reaction buffer (20 mM Hepes (pH 7.5), 10 mM MgCl2, 1 mM EGTA, 0.02% Brij35, 0.02 mg/mi BSA, 0.1 mM Na3VO4, 2 mM DTT, 1% DMSO). BTK(C481S) (SignalChem, Cat. #B10-12CH) was delivered into the substrate solution and mixed gently. The final concentrations of BTK (C481S) and the substrate in the reaction mixture were 6 nM and 0.2 mg/ml, respectively. Compounds were tested in 10-point concentration/response mode with 3-fold serial dilution steps starting at 1 μM.
Compounds in 100% DMSO were delivered into the kinase reaction mixture by acoustic liquid delivery technology (Echo550; nanoliter range) and incubated for 20 min at room temperature. 10 μM [^33P]-ATP (ATP: Sigma, Cat #: A7699; [^33P]-ATP: Hartmann Analytic, Cat #: SCF-301-12) was delivered into the reaction mixture to initiate the reaction. The mixture was incubated for 120 min at room temperature. Radioactivity was detected utilizing a proprietary filter-binding method. Kinase activity data were expressed as the percent remaining kinase activity in test samples compared to vehicle (DMSO) reactions. IC50 values were obtained using GraphPad Prism software.
Select compounds prepared as described above were assayed according to the biological procedures described herein.

The next experiment deals with OCI-LY10 cells. Put plainly: Cell proliferation assay (MTS) in OCI-LY10 cells. The format is cell-based. The conditions noted are these: Homo sapiens; inhibition of OCI-LY10 cells proliferation, 72 h incubation, MTS, absorbance at 490 nm; read-out: OCI-LY10 IC50. The essentials: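 BTK-dependent OCI-LY10 proliferation: cells seeded at 10000/well, preincubated 4 h, then compound exposure 72 h at 37° C., 5% CO2. MTS added for 2 h and absorbance read at 490 nm; IC50 derived from the concentration-response.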

T1 sequence (Q06187 whole entry C481S): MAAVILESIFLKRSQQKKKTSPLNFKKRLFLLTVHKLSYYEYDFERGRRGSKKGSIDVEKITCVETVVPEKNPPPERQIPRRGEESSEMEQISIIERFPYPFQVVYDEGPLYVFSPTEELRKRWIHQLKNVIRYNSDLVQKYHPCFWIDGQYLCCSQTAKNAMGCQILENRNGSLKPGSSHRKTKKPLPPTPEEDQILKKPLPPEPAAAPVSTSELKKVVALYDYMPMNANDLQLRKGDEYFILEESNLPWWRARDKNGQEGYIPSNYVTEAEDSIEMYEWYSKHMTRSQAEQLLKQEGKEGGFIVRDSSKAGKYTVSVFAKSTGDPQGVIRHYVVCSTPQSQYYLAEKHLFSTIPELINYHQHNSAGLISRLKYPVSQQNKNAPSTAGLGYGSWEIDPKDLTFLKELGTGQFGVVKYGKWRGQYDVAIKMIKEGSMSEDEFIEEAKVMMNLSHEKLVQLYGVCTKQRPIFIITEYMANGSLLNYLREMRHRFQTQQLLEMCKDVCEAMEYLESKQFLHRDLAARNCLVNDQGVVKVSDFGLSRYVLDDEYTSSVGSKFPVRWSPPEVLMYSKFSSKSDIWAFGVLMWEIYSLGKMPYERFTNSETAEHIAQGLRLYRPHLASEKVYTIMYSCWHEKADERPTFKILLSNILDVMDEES

Consider `COc1ccccc1C(=O)NCc1ccc(-n2cc(C3CCCC3)c3c(=O)[nH]nc(N)c32)cc1` [Example 1, N-(4-(7-amino-3-cyclopentyl-4-oxo-4,5-dihydro-1H-pyrrolo[2,3-d]pyridazin-1-yl)benzyl)-2-methoxybenzamide], for which the results for the 50% inhibitory concentration (IC50) at BTK (C481S) and in the experiment with OCI-LY10 cells were 5 nM and 28 nM, respectively.

As to `COc1ccccc1C(=O)NCc1ccc(-n2nc(C3CCCC3)c3c(=O)[nH]nc(N)c32)cc1` [Example 2, N-(4-(7-amino-3-cyclopentyl-4-oxo-4,5-dihydro-1H-pyrazolo[3,4-d]pyridazin-1-yl)benzyl)-2-methoxybenzamide], the IC50 (commonly the midpoint of a concentration-inhibition curve) is 3.3 nM at BTK (C481S) and 34 nM with OCI-LY10 cells.

For `COc1ccccc1C(=O)NCc1ccc(-c2cn(C3CCCC3)c3c(=O)[nH]nc(N)c23)cc1` [Example 4, N-(4-(4-amino-1-cyclopentyl-7-oxo-6,7-dihydro-1H-pyrrolo[2,3-d]pyridazin-3-yl)benzyl)-2-methoxybenzamide], the figures for the IC50 at BTK (C481S) and in the experiment with OCI-LY10 cells were 6.5 nM and 69 nM, respectively.

With `COc1ccccc1C(=O)NCc1ccc(-c2nn(C3CCCC3)c3c(=O)[nH]nc(N)c23)cc1` [Example 5, N-(4-(4-amino-1-cyclopentyl-7-oxo-6,7-dihydro-1H-pyrazolo[3,4-d]pyridazin-3-yl)benzyl)-2-methoxybenzamide], the 50% inhibitory concentration (IC50) at BTK (C481S) turned out to be 8 nM; in the experiment with OCI-LY10 cells, 68 nM.

At BTK (C481S), `COc1ccccc1C(=O)NCc1ccc(-c2nc(C3CCCC3)n3ncnc(N)c23)cc1` [Example 6, N-(4-(4-amino-7-cyclopentylimidazo[5,1-f][1,2,4]triazin-5-yl)benzyl)-2-methoxybenzamide] came in with a half-maximal inhibitory concentration (IC50) of 7.8 nM.

Molecule `COc1ccccc1C(=O)NCc1ccc(-c2nc(C3CCCC3)n3ccnc(N)c23)cc1` [Example 7, N-(4-(8-amino-3-cyclopentylimidazo[1,5-a]pyrazin-1-yl)benzyl)-2-methoxybenzamide] displayed an IC50 at BTK (C481S) of 3 nM.

Take `COc1ccc(F)cc1C(=O)NCc1ccc(-n2cc(C3CCCC3)c3c(=O)[nH]nc(N)c32)cc1` [Example 8, N-(4-(7-amino-3-cyclopentyl-4-oxo-4,5-dihydro-1H-pyrrolo[2,3-d]pyridazin-1-yl)benzyl)-5-fluoro-2-methoxybenzamide]: the IC50 on BTK (C481S) came to 0.45 nM; in the experiment with OCI-LY10 cells, 1 nM.

`COc1ccc(F)cc1C(=O)NCc1ccc(-c2nn(C3CCCC3)c3c(=O)[nH]nc(N)c23)cc1` [Example 11, N-(4-(4-amino-1-cyclopentyl-7-oxo-6,7-dihydro-1H-pyrazolo[3,4-d]pyridazin-3-yl)benzyl)-5-fluoro-2-methoxybenzamide]: the half-maximal inhibitory concentration (IC50) on BTK (C481S) is 0.5 nM; in the experiment with OCI-LY10 cells it was 1 nM.

As to `COc1ccc(F)cc1C(=O)NCc1ccc(-c2cn(C3CCCC3)c3c(=O)[nH]nc(N)c23)cc1` [Example 17, N-(4-(4-amino-1-cyclopentyl-7-oxo-6,7-dihydro-1H-pyrrolo[2,3-d]pyridazin-3-yl)benzyl)-5-fluoro-2-methoxybenzamide], the concentration for half-maximal inhibition (IC50) on BTK (C481S) came to 0.5 nM; in the experiment with OCI-LY10 cells, 1 nM.

As to `COc1ccc(F)cc1C(=O)NCc1ccc(-c2nn([C@H]3CCC[C@H]3F)c3c(=O)[nH]nc(N)c23)cc1` [Example 81, N-(4-(4-amino-1-((1S,2R)-2-fluorocyclopentyl)-7-oxo-6,7-dihydro-1H-pyrazolo[3,4-d]pyridazin-3-yl)benzyl)-5-fluoro-2-methoxybenzamide], the concentration for half-maximal inhibition (IC50) at BTK (C481S) is 0.91 nM; with OCI-LY10 cells, 1 nM.

`COc1ccc(F)cc1C(=O)NCc1ccc(-c2cn([C@@H]3CCN(C(=O)OC4CC4)C3)c3c(=O)[nH]nc(N)c23)cc1` [Example 106, cyclopropyl (R)-3-(4-amino-3-(4-((5-fluoro-2-methoxybenzamido)methyl)phenyl)-7-oxo-6,7-dihydro-1H-pyrrolo[2,3-d]pyridazin-1-yl)pyrrolidine-1-carboxylate]: in the experiment with OCI-LY10 cells, the half-maximal inhibitory concentration (IC50) was determined as 11 nM.

As for `COc1ccc(F)cc1C(=O)NCc1ccc(-c2cn([C@@H]3CCN(C(=O)N4CCC4)C3)c3c(=O)[nH]nc(N)c23)cc1` [Example 107, (R)-N-(4-(4-amino-1-(1-(azetidine-1-carbonyl)pyrrolidin-3-yl)-7-oxo-6,7-dihydro-1H-pyrrolo[2,3-d]pyridazin-3-yl)benzyl)-5-fluoro-2-methoxybenzamide], in the experiment with OCI-LY10 cells, the concentration for half-maximal inhibition (IC50) was found to be 11 nM.

On to `C=CC(=O)N1CC[C@@H](n2cc(-c3ccc(CNC(=O)c4cc(F)ccc4OC)cc3)c3c(N)n[nH]c(=O)c32)C1` [Example 109, (R)-N-(4-(1-(1-acryloylpyrrolidin-3-yl)-4-amino-7-oxo-6,7-dihydro-1H-pyrrolo [2,3-d]pyridazin-3-yl)benzyl)-5-fluoro-2-methoxybenzamide], for which, in the experiment on OCI-LY10 cells, the IC50 worked out at 1 nM.

On to `CCS(=O)(=O)N1CC[C@@H](n2cc(-c3ccc(CNC(=O)c4cc(F)ccc4OC)cc3)c3c(N)n[nH]c(=O)c32)C1` [Example 110, (R)-N-(4-(4-amino-1-(1-(ethylsulfonyl)pyrrolidin-3-yl)-7-oxo-6,7-dihydro-1H-pyrrolo[2,3-d]pyridazin-3-yl)benzyl)-5-fluoro-2-methoxybenzamide], for which the IC50 in the experiment with OCI-LY10 cells amounted to 23 nM.

Regarding `COc1ccc(F)cc1C(=O)NCc1ccc(-c2cn([C@@H]3CCN(S(=O)(=O)C(C)C)C3)c3c(=O)[nH]nc(N)c23)cc1` [Example 111, (R)-N-(4-(4-amino-1-(1-(isopropylsulfonyl)pyrrolidin-3-yl)-7-oxo-6,7-dihydro-1H-pyrrolo[2,3-d]pyridazin-3-yl)benzyl)-5-fluoro-2-methoxybenzamide], in the experiment on OCI-LY10 cells, the IC50 was 14 nM.

With `COc1ccc(F)cc1C(=O)NCc1ccc(-c2cn([C@@H]3CCN(S(=O)(=O)C4CC4)C3)c3c(=O)[nH]nc(N)c23)cc1` [Example 112, (R)-N-(4-(4-amino-1-(1-(cyclopropylsulfonyl)pyrrolidin-3-yl)-7-oxo-6,7-dihydro-1H-pyrrolo[2,3-d]pyridazin-3-yl)benzyl)-5-fluoro-2-methoxybenzamide], the IC50 in the experiment with OCI-LY10 cells was determined as 2 nM.
